From US20170112873A1, “Method and Topical Composition for the Treatment of Rosacea and Skin Erythema Using Selenium Sulfide” (priority 2015, published 2017)

System: facial Rosacea
Experiment: clinical type observations of topical application in facial Rosacea
Assay type: in vivo

Structure (SMILES): S=[Se]=S [selenium sulfide]
- redness, small dilated blood vessels and small red bumps characterizing the facial Rosacea (clinical type observations): observed to be decreased
- effectiveness in facial Rosacea (fluid form selenium sulfide of 1% strength): Effective in most instances
- redness, flushing and inflammation associated with facial Rosacea and skin erythema (topical application, clinical type observations): effective in significantly reducing
